Patent US9675662B2, “Compositions for inhibition of RNA polymerase I and methods of production and use thereof” (The Board of Regents of the University of Oklahoma, priority 2011, dated 2017)
Entries after “also recorded” stand apart in the source; their conditions may differ. Read-outs that look alike come from different tables or passages of the source. Where no end group is shown, it is not given here. The star is where a group is joined. Biotin = O=C1N[C@H]2[C@H](CS[C@H]2CCCCC(=O)*)N1

Assays:
Rrn3 = molecular target: T1, Rrn3 (Homo sapiens, UniProt Q9NYV6); experiment: Binding of purified recombinant Rrn3 to streptavidin beads carrying biotinylated 22mer (pull-down, western blot); conditions: western blotting for Rrn3 (anti-FLAG)
T1 construct: made in house
T1 sequence (Q9NYV6 whole entry, species assumed): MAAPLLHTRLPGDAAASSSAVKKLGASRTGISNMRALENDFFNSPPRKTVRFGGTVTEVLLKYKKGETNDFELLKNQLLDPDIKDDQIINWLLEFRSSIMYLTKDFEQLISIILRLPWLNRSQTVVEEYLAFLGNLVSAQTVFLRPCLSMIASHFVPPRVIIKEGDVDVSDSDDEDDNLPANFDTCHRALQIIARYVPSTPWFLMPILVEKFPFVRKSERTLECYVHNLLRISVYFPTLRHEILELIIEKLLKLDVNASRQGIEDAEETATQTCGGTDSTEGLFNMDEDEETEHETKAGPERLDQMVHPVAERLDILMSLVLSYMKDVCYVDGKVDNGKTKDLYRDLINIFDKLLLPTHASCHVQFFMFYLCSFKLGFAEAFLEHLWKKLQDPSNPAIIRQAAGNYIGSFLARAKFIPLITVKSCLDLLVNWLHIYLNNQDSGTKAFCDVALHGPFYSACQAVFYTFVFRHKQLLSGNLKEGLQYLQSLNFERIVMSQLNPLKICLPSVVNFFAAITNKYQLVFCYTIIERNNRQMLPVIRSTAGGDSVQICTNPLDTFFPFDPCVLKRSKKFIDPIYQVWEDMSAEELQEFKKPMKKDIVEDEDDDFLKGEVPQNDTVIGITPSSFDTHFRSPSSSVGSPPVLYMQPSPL
Experimental: Immunoaffinity purified Rrn3 was incubated with streptavidin beads that had been preincubated with biotin-tagged 22mer or control extracts. After the beads were washed the proteins bound to the beads were analyzed by SDS-PAFE and western blotting for Rrn3 (anti-FLAG antibody).
In order to address that question, a biotinylated peptide made up of those 22 amino acids (biotin-[…] (SEQ ID NO:1)) was attached to streptavidin beads, and the ability to bind purified, recombinant Rrn3 was determined.

WI38 cells = experiment: Growth of WI38 cells (MTT assay) and peptide uptake; format: cell-based; conditions: 48 hours
Experimental: FIG. 11 illustrates the effects of TAT-22mer on WI38 cells after 48 hours using the MTT assay.
(§1) In these experiments, and in others described below, cell numbers were determined using the […], and the absorbance at 570 nm is presented instead of cell numbers.

[1] = test system: rDNA transcription (RNA polymerase I); experiment: Cell-free rDNA transcription reaction (N1S1 nuclear extracts, rat rDNA promoter); format: biochemical; conditions: added in excess to transcription reaction
From the text: FIG. 6 illustrates squelching by excess Rpa43 or the peptide (22mer) that mediates the interaction between Rpa43 and Rrn3.
To test this model, recombinant Rpa43 was purified and added to cell free transcription reactions to determine if excess Rpa43 could inhibit transcription. The components added to this reaction included nuclear extracts of N1S1 cells (a rat tumor cell line), and recombinant DNA of the rat rDNA promoter and the purified, recombinant Rpa43 or purified synthetic peptides (FIG. 6). […] A similar series of experiments was then undertaken with synthetic peptides. The two peptides were based on the sequence of the region shown to be required for the interaction between Rrn3 and Rpa43 (FIG. 6, Panel B).

A431 cells = experiment: Growth of A431 cells plated at low density; format: cell-based; conditions: 72 hr
Experimental: FIG. 12 illustrates the effects of TAT-22mer on the growth of A431 cells plated at low density after 72 hr.
as §1

NIH 3T3 cells = experiment: Growth of NIH 3T3 cells after 48 hours; format: cell-based; conditions: three plating densities, 40 and 60 μM
Experimental: FIG. 10 illustrates the effects of a TAT-tagged 22mer (TAT-22mer) composition of the presently disclosed inventive concept(s) on NIH 3T3 cells plated at three different densities after 48 hours.
However, it was possible that the same peptide would inhibit the growth of “normal” cells as well. To examine this possibility, TAT-tagged 22mer was added to the media of NIH 3T3 cells, and growth was measured after 48 hours.
as §1

293T cells = experiment: Growth of 293T-based cell lines expressing doxycycline-inducible peptide; conditions: peptide expressed in cells grown in doxycycline; versus Ψ peptide
From the text: To confirm and extend these studies, cell lines were constructed that were based on 293T cells (Invitrogen, Carlsbad, Calif.), that expressed doxycycline-inducible 22mer or the random peptide (Ψ). […] N.B., there was an inhibition of growth.

N1S1 rat hepatoma cells = experiment: Growth of N1S1 hepatoma cells after peptide transduction; format: cell-based
Experimental: FIG. 14 illustrates the effects of TAT-22mer (labeled “STBY”) on the growth of N1S1 rat hepatoma cells.
FIG. 15 illustrates the effects of TAT-22mer (labeled “STBY”) on the growth of N1S1 rat hepatoma cells (fresh peptide added after 24 hours).
This effect was then tested […], i.e. with immortalized cells in tissue culture. There are several possible ways of introducing the desired peptide into cells. In a first experiment, ten amino acids, YGRKKEEQRR (SEQ ID NO:176), were added to the N-terminus of the 22mer peptide, […] (resulting in a sequence of […] (SEQ ID NO:175)); the ten amino acids were added to assist in transduction of the peptide into the cells. The TAT peptide is an NH2-terminal 11-amino acid protein transduction domain (PTD) from the human immunodeficiency virus (HIV) TAT protein that was first identified in 1988 by Green et al. This peptide and peptides like it are capable of transducing proteins across the cell membrane.
The effects of transducing the 22mer coupled to TAT peptide were then compared to TAT peptide alone. An aggressive chemically-induced hepatoma cell line (N1S1 cells) was used for these experiments.
(§2) When the sequence of the 22mer was examined, it was noted that it contains two cysteine residues that might form a disulfide bond and inhibit the activity of the peptide. To examine this question, the experiment previously carried out on the N1S1 cells was repeated using peptide that was dissolved in 0.1 mM […].

[2] = test system: P1798 mouse lymphosarcoma cells; experiment: Growth and viability (Trypan blue exclusion) of P1798 lymphosarcoma cells; format: cell-based
From the text: FIG. 16 illustrates the effect of TAT-22mer on P1798 mouse lymphosarcoma cells.
FIG. 17 contains micrographs of P1798 mouse lymphosarcoma cells treated with TAT-22mer (“STBY peptide”) at indicated doses. The cells were stained with trypan blue to determine viability.
FIG. 18 illustrates the effects of TAT-22mer (TAT-STBY) and TAT-STBY C-Mu on P1798 mouse lymphosarcoma cells.
FIG. 19 illustrates the effects of TAT-22mer (TAT-STBY) and TAT-STBY C-Mu on the viability of P1798 mouse lymphosarcoma cells. The same cells studied in the experiment presented in FIG. 18, were also stained with Trypan blue to determine viability. The viable cell counts at 10 and 24 hrs of treatment were too low to be considered reliable (*).
FIG. 20 illustrates the effects of TAT-22mer (TAT-STBY) and TAT-STBY C-Mu on the viability of P1798 mouse lymphosarcoma cells as analyzed in FIGS. 18 and 19.
FIG. 21 illustrates the effects of TAT-22mer (TAT-STBY) and TAT-STBY C-Mu on P1798 mouse lymphosarcoma cells. P1798 Cells were treated with TAT-STBY C-Mu for 26 hours and then stained with Trypan blue. […] The treated cells were concentrated 20× for photography.
FIG. 22 illustrates the kinetics of cell death following treatment with C-Mu peptide. […] Cells were harvested by centrifugation every two hours, and the numbers of viable cells were determined using the Trypan blue exclusion assay.
as §2
In fact, automated cell-cell counting was inaccurate due to the increased amount of dead cells and debris (FIGS. 19-20).

[3] = test system: rDNA transcription in N1S1 cells; experiment: [3H]-uridine incorporation into newly synthesized RNA in transduced N1S1 cells; format: cell-based, rat; conditions: 40 μM, eight hours after transduction
Experimental: FIG. 7 illustrates that transduction of the 22mer inhibits rDNA transcription in tissue culture cells. Low density cultures of N1S1 cells were transduced with the TAT-22mer (40 μM). Eight hours after transduction, the cells were incubated with tritiated uridine to label newly synthesized RNA. Total RNA was precipitated with TCA and collected on glass fiber filters, and the radioactivity incorporated was measured by liquid scintillation counting.

[4] = test system: U937 human lymphoma cells; experiment: Growth of U937 cells; format: cell-based
Experimental: FIG. 13 illustrates the effects of TAT-22mer on the growth of U937 cells after 24 hours.
as §1

| Substance | binding of Rrn3 to bead-bound peptide (Rrn3) | binding of Rrn3 to bead-bound peptide (Rrn3; listed as biotin-tagged 22mer) | growth of WI38 cells (WI38 cells) | inhibition of cell-free rDNA transcription [1] | growth of A431 cells (A431 cells) | growth of 3T3 cells (NIH 3T3 cells) | cell growth / rate of cell division (293T cells) | N1S1 cell growth / cell division (N1S1 rat hepatoma cells) | appearance of N1S1 cells (N1S1 rat hepatoma cells; 40 μM, after 48 hr) | rate of N1S1 cell accumulation (N1S1 rat hepatoma cells; 20 and 40 μM) | growth of P1798 cells [2] | Trypan blue dye exclusion by P1798 cells ([2]; 40 μM) | response of P1798 cells at 40 micromolar ([2]; 40 micromolar, cells grown in a reducing medium) | number of viable P1798 cells ([2]; photomicrographs, Trypan blue) | inhibition of rDNA transcription ([3]; inferred from uridine incorporation) [%] | inhibition of [3H]-uridine incorporation ([3]; low density N1S1 cultures) [%] | growth of U937 cells [4] | growth of U937 cells at 80 μM ([4]; 80 μM, 24 hours) | N1S1 cell growth / cell division (N1S1 rat hepatoma cells; listed as STBY) | decrease in number of treated N1S1 cells (N1S1 rat hepatoma cells; peptide dissolved in 0.1 mM reducing agent (dithiothreitol), fresh peptide added after 24 hours) [%] |
| --- | --- | --- | --- | --- | --- | --- | --- | --- | --- | --- | --- | --- | --- | --- | --- | --- | --- | --- | --- | --- |
| Biotin-NKVSSSHIGCLVHGCFNASIPK (cysteine pairing not given here) [biotinylated 22mer] | Rrn3 bound to beads | sufficient to mediate interaction between Rpa43 and Rrn3 | – | – | – | – | – | – | – | – | – | – | – | – | – | – | – | – | – | – |
| NKVSSSHIGCLVHGCFNASIPK (listed as Homo sapiens) [22mer, amino acids 137 to 158 of mouse Rpa43] | – | – | minimal effect on the growth | inhibits transcription; also recorded: transcription was inhibited | inhibited the growth | no effects on the growth | inhibits cell growth; also recorded: significant decrease in the rate of cell division | inhibits cell division; also recorded: significantly inhibited cell growth in a dose-dependent manner | appeared to be apoptotic | decreased rate of cell accumulation | – | – | – | – | – | – | – | – | – | – |
| YGRKKEEQRRNKVSSSHIGCLVHGCFNASIPK (1st ten amino acids are TAT peptide from HIV; last 22 amino acids are from Homo sapiens) [TAT-22mer, 22mer with ten TAT amino acids added to the N-terminus] | – | – | minimal effect on cell accumulation | – | – | – | – | cell growth was inhibited | – | – | very significant effects on the growth | did not exclude the dye | significant response | significantly reduced the number of viable cells | ~100 | 70 | very significant effects on the growth | significant inhibition of cell growth | very significant effects on the growth | 90 |
